Laboratory results as given in patent US8742068B2, “Treatment and prevention of inflammatory diseases and autoimmune diseases” (Universiteit Utrecht Holding B.V., priority 2007, dated 2014).

How the values were obtained:
TNBS-induced colitis = assay: TNBS colitis (Example 6); assay type: in vivo, BALB/c mice
Protocol: Female BALB/c mice (Charles River-Germany), 10-12 weeks of age at start of the experiment, were either treated intragastrically or intranasally with full HSP70 [SEQ ID NO: 55] or HSP70 peptides (Mycobacterial HSP70 derived peptide “C1” shown in SEQ ID NO: 3 and mouse homologue peptide “mC1a” of SEQ ID NO: 4) prior to disease induction. Mice received 4×30 μg HSP70 intragastrically, in a period of 4 weeks. Stomach contents were neutralized by administering soybean trypsin inhibitor (SBTI) 10 minutes prior to oral HSP70 administration.
Intranasal treatment was performed with 4×30 μg HSP70 or 4×(67 μg peptide C1 (Mycobacterial tub. HSP70 peptide 141-155, VLRIVNEPTAAALAY) mixed with 33 μg peptide mC1a (=mouse Grp75 (hspa9) peptide 216-230, […])), in a period of 1 week.
Next, mice were sensitized by painting the shaved abdomen with 1 mg of TNBS in 100 μl 50% ethanol on two consecutive days, followed by a rectal challenge with 1 mg TNBS in 100 μl 40% ethanol, after 6 days. Mice were dissected 3 days later, and colonic inflammation was determined based on colon length, weight and morphology. Furthermore, cytokine production within colon and draining caudal lymph nodes (CLN) were determined.
• A. Oral PBS, sensitization TNBS, challenge TNBS (control group) • B. Oral (full length) HSP70, sensitization TNBS, challenge TNBS (oral group) • C. […]

adjuvant arthritis = details: in vivo; cited from earlier work
DSS colitis [1] = assay: DSS colitis (Utrecht study, Example 5); assay type: in vivo, BALB/c mice; details: for Colon Length (cm), average: 4 x 30 μg oral gavage, 3% DSS 7 days, n=10
Protocol: This study is performed with female BALB/c mice aged 7 weeks at the start of the experiment. Groups of mice (n=10) were treated 4 times (days 7, 9, 11, 14) with 30 μg HSP70 in 100 μl PBS (Mt hsp70; batch 031205; 2.1 Endotoxin Units/mg) or vehicle (100 μl PBS), administered via oral gavage. 10 minutes prior to gavage animals received 2 mg soybean trypsin inhibitor (SBTI) in 0.15M sodium bicarbonate, pH 8.0. Colitis was induced by administering drinking water supplemented with 3% DSS during 7 days.
Disease onset was followed by determination of body weight and stool consistency, resulting in clinical state as explained in the table below.
At dissection, colon length was recorded
Colons were cut longitudinally and divided into parts to determine: • histology on formalin-fixed paraffin sections • MPO activity in homogenates (indicative for neutrophilic infiltrations) • Ex-vivo cytokine release (TNFα, IL10) from distal colon sample.
Total score is calculated by the adding the score for each parameter and divided by 3.
Distal colon samples were incubated for 24 h and IL10 content in supernatant was measured using a specific ELISA. IL10 release from distal colon sample in healthy BALB/c mice is 450±328 pg/g colon.

DSS colitis [2] = assay: DSS colitis, peroral treatment (Prague study, 1st part, Example 3); assay type: in vivo, BALB/c mice
Protocol: (§1) Fifteen conventional female Balb/c female mice (7 to 9 weeks old) were randomly separated in […] (five mice each). To evaluate the efficacy of per oral treatment, the antigens (full length Mycobacterial HSP70 protein) were administered together with 1 mg of Soybean trypsin inhibitor (SBTI, Sigma) dissolved in 50 μl of 0.15 M sodium bicarbonate, by gavage 4 times in one week interval. After one week the mice received 3% dextran sodium sulfate (DSS) in their drinking water continuously for up to 7 days. Colitis was evaluated on day 35 by a clinical activity score, by colon length and histological score.
• treated: 100 μl of sterile PBS/SBTI intragastrically (Control group) Group B1 (HSP60+DSS): • treated: HSP60 30 μg/mouse in 100 μl of sterile PBS/SBTI (1:1) intragastrically Group C1 (HSP70+DSS): • treated: HSP70 30 μg/mouse in 100 μl of sterile PBS/SBTI (1:1) intragastrically Results

DSS colitis [3] = assay: DSS colitis, peroral treatment (Prague study, 2nd part, Example 4); assay type: in vivo, BALB/c mice
Protocol: as §1, with “sodium sulphate” for “sodium sulfate”, “to 8” for “to 7”, “day 36” for “day 35”
• treated: 100 μl of sterile PBS/SBTI intragastrically (Control) Group B2 (HSP60+DSS): • treated: HSP60 30 μg/mouse in 100 μl of sterile PBS/SBTI (1:1) intragastrically Group C2 (HSP70+DSS): • treated: HSP70 30 μg/mouse in 100 μl of sterile PBS/SBTI (1:1) intragastrically Results

[4] = 30 μg/mouse intragastrically with SBTI, 4 times before 3% DSS, 5 mice
[5] = Multiple Range Tests, * p < 0.05

In the case of “HSP70: full length Mycobacterial HSP70 protein (SEQ ID NO: 55)”, the “IL-10 responses in the caudal lymphnodes” value (TNBS-induced colitis; orally given, CD3/CD28 restimulation of draining lymph node cells) is given as “elevated IL-10 responses”, the “effect on TNBS induced colitis” value (TNBS-induced colitis; prophylactically, HSP70 4x30 μg orally or intranasally, peptides 4x(67 μg C1 + 33 μg mC1a) intranasally) is given as “suppressive effect on TNBS induced colitis” and the “development of adjuvant arthritis” value (adjuvant arthritis) is given as “reduce the development of adjuvant arthritis”. The “Colon Length (cm), average” value (DSS colitis [1]) was 6.8 cm, the “Colon Length (cm), average” value (DSS colitis [1]; listed as HSP70 protein) was “less decreased” and the “disease severity (clinical score, disease progression)” value (DSS colitis [1]; pre-treatment 4 x 30 μg oral gavage) was “decreased disease severity”. The “Histological grade, Average” value (DSS colitis [2]; [4]) was 1.4, the “Weight change, Average” value (DSS colitis [2]; [4]) was −2.04 and the “Colon length, Average” value (DSS colitis [2]; 30 μg/mouse intragastrically with SBTI, 4 times in one week interval before 3% DSS, day 35, 5 mice) was 6.36. The “Clinical state, Difference (contrast PBS minus treatment)” value (DSS colitis [2]; [5]) was “*1.3332”, the “Colon length, Difference (contrast PBS minus treatment)” value (DSS colitis [2]; [5]) was −0.2 and the “Histological grade, Difference (contrast PBS minus treatment)” value (DSS colitis [2]; [5]) was “*0.75”. The “Weight change, Difference (contrast PBS minus treatment)” value (DSS colitis [2]; [5]) was “*−6.52”, the effect on colitis (DSS colitis [2]; administered orally, prophylactically (prior to disease induction)) was “suppressive effect on colitis” and the “Clinical state, Average” value (DSS colitis [2]; total score of weight loss, stool consistency, bleeding divided by 3, 30 μg/mouse intragastrically, 5 mice) was 2.1334. The “Histological grade, Average” value (DSS colitis [3]; [4]) was 1.225, the “Weight change, Average” value (DSS colitis [3]; [4]) was −0.44 and the “Histological grade, Difference (contrast PBS minus treatment)” value (DSS colitis [3]; Multiple Range Tests) was 0.35. The “Colon length, Difference (contrast PBS minus treatment)” value (DSS colitis [3]; [5]) was “*−1.02”, the “Weight change, Difference (contrast PBS minus treatment)” value (DSS colitis [3]; [5]) was “*−4.62” and the “symptoms of colitis compared to PBS” value (DSS colitis [3]; p=0.0057, 0.0387 and 0.0831 for colon length, weight loss and clinical state) was “significantly mitigates the symptoms of colitis”.
